Results: patent US5112833A, “1-azaindolizine derivatives, synthetic intermediates thereof and antiallergic agents containing 1-azaindolizine derivatives” (Zenyaku Kogyo Kabushiki Kaisha, priority 1988, dated 1992)
Where a name gives a salt, the structure may show the parent alone.

How the values were obtained:
[1] = system: homologous passive cutaneous anaphylaxis (PCA) reaction; assay: Inhibition of homologous passive cutaneous anaphylaxis (PCA) reaction; assay type: in vivo, male Wistar rats; conditions: Rattus norvegicus, 0.5 h, rats, read-out: Inhibition (%) of leaked amount of dye in PCA reaction; for inhibition in vivo at 20 mg/kg: intravenous, immediately before ovalbumin challenge, *P < 0.02, **P < 0.005
Protocol: The antiallergic action of the compounds of the present invention obtained by the above-mentioned preparation process was examining by the following inhibition test of homologous passive cutaneous anaphylaxis (PCA) reaction on rats.
Antiserum was obtained from rats that were immunized with ovalbumin according to the method of Mota [Immunology, 7, 681-699 (1964)]. The antiserum was diluted with physiological saline to make PCA reaction of approximately 10-15 mm in diameter. Groups of 5 male Wistar rats, 8 weeks old and weighing between 200-250 g, were passively sensitized with 0.1 ml of the diluted antiserum injected intradermally in the shaved area on the back. Fourty-eight hours after the sensitization, each above sample dissolved into physiological saline was injected into the rats intravenously via tail vein. Immediately after injection of the sample, rats were challenged with the physiological saline solution containing ovalbumin (25 mg/kg/head) and Evans blue (12.5 mg/kg/head) intravenously via tail vein so as to generate PCA reaction. Thirty minutes after the accomplishment of the challenge, the rats were exsanguinated and removed the skins from the back. The amount of the dye leaked out of the vessels was measured by the method of Katayama et al. [Microbiol. Immunol. 22, 89-101 (1978)].
The effects of samples on PCA reaction were expressed as percentage of inhibition of the leaked amount of the dye calculated by the following equation: [formula] where C is the mean leaked amount of the dye in control group, S is the mean leaked amount of dye in sample treated group. The results of the experiments were shown in Table 1, which included the effect of DSCG used as a positive control.

[2] = Acute toxicity test (LD50); conditions: mouse, in vivo; intravenous via tail vein, male ICR mice, 10 days' observation
Protocol: Acute toxicity tests of the compounds of the present invention were carried out as described below. Groups of 5 male ICR mice, 5 weeks old and weighing 30±5 g, were used. The samples dissolved in physiological saline were injected intravenously via tail vein of the mice. Each LD50 was determined through 10 days' observation.

| SMILES | inhibition in vivo at 10 mg/kg ([1]; iv, 10 mg/kg, positive control, **P < 0.005) | inhibition in vivo at 20 mg/kg [1] | LD50 at 240 h [2] |
| --- | --- | --- | --- |
| O=C(O)c1cc(=O)c2c(OCC(O)COc3cccc4oc(C(=O)O)cc(=O)c34)cccc2o1 [DSCG, disodium chromoglycate, reference compound] | 75% |  |  |
| COc1nc2ccc(C)cn2c1C=C(C#N)C(=O)O [Sample 1, Sodium salt of 3-(2-carboxy-2-cyanovinyl)-2-methoxy-6-methylimidazo[1,2-a]pyridine] |  | 52.6% |  |
| Cc1cccn2c(C=C(C#N)C(=O)O)c(OC(C)C)nc12 [Sample 2, Sodium salt of 3-(2-carboxy-2-cyanovinyl)-2-isopropoxy-8-methylimidazo[1,2-a]pyridine] |  | 68.4% | ~150 mg/kg |
| COc1cccn2c(C=C(C#N)C(=O)O)c(OC(C)C)nc12 [Sample 3, Sodium salt of 3-(2-carboxy-2-cyanovinyl)-2-isopropoxy-8-methoxyimidazo[1,2-a]pyridine] |  | 90% | ~350 mg/kg |
| CCOc1cccn2c(C=C(C#N)C(=O)O)c(OC(C)C)nc12 [Sample 4, Sodium salt of 3-(2-carboxy-2-cyanovinyl)-8-ethoxy-2-isopropoxyimidazo[1,2-a]pyridine] |  | 85.4% |  |
| CC(C)Oc1nc2c(OC(C)C)cccn2c1C=C(C#N)C(=O)O [Sample 5, Sodium salt of 3-(2-carboxy-2-cyanovinyl)-2,8-diisopropoxyimidazo[1,2-a]pyridine] |  | 94.6% | ~220 mg/kg |
| CCCCOc1nc2c(C)cccn2c1C=C(C#N)C(=O)O [Sample 6, Sodium salt of 2-butoxy-3-(2-carboxy-2-cyanovinyl)-8-methylimidazo[1,2-a]pyridine] |  | 69.8% |  |
| Cc1ccn2c(C=C(C#N)C(=O)O)c(OCC(C)C)nc2c1 [Sample 7, Sodium salt of 3-(2-carboxy-2-cyanovinyl)-2-isobutoxy-7-methylimidazo[1,2-a]pyridine] |  | 65.8% |  |
| CCC(C)Oc1nc2c(C)cccn2c1C=C(C#N)C(=O)O (stereo not drawn) [Sample 8, Sodium salt of 3-(2-carboxy-2-cyanovinyl)-8-methyl-2-secbutoxyimidazo[1,2-a]pyridine] |  | 80.4% |  |
| CCOc1cccn2c(C=C(C#N)C(=O)O)c(OC(C)CC)nc12 (stereo not drawn) [Sample 9, Sodium salt of 3-(2-carboxy-2-cyanovinyl)-8-ethoxy-2-secbutoxyimidazo[1,2-a]pyridine] |  | 75.3% |  |
| CCC(C)Oc1nc2c(OC(C)C)cccn2c1C=C(C#N)C(=O)O (stereo not drawn) [Sample 10, Sodium salt of 3-(2-carboxy-2-cyanovinyl)-8-isopropoxy-2-secbutoxyimidazo[1,2-a]pyridine] |  | 92.5% |  |
| CCCCCCOc1nc2c(C)cccn2c1C=C(C#N)C(=O)O [Sample 11, Sodium salt of 3-(2-carboxy-2-cyanovinyl)-2-hexyloxy-8-methylimidazo[1,2-a]pyridine] |  | 75.7% |  |
| C=CCCOc1nc2c(C)cccn2c1C=C(C#N)C(=O)O [Sample 12, Sodium salt of 2-(3-butenyloxy)-3-(2-carboxy-2-cyanovinyl)-8-methylimidazo[1,2-a]pyridine] |  | 68.9% |  |
| Cc1cccn2c(C=C(C#N)C(=O)O)c(OCCCO)nc12 [Sample 13, Sodium salt of 3-(2-carboxy-2-cyanovinyl)-2-(3-hydroxypropoxy)-8-methylimidazo[1,2-a]pyridine] |  | 64.3% |  |
| CC(=O)NCCCOc1nc2c(C)cccn2c1C=C(C#N)C(=O)O [Sample 14, Sodium salt of 2-(3-acetylaminoproxy)-3-(2-carboxy-2-cyanovinyl)-8-methylimidazo[1,2-a]pyridine] |  | 74.8% |  |
| Cc1cccn2c(C=C(C#N)C(=O)O)c(OCC3CC3)nc12 [Sample 15, Sodium salt of 3-(2-carboxy-2-cyanovinyl)-2-cyclopropylmethoxy-8-methylimidazo[1,2-a]pyridine] |  | 61.8% |  |
| COCCOc1nc2c(C)cccn2c1C=C(C#N)C(=O)O [Sample 16, Sodium salt of 3-(2-carboxy-2-cyanovinyl)-2-(2-methoxyethoxy)-8-methylimidazo[1,2-a]pyridine] |  | 68.9% |  |
| Cc1cccn2c(C=C(C#N)C(=O)O)c(OCCCC#N)nc12 [Sample 17, Sodium salt of 3-(2-carboxy-2-cyanovinyl)-2-(3-cyanoproxy)-8-methylimidazo[1,2-a]pyridine] |  | 71.3% |  |
